Source: US20150093351A1, “MALODOR CONTROL COMPOSITIONS HAVING ACTIVATED ALKENES AND METHODS THEREOF” (The Procter & Gamble Company, priority 2012, published 2015)
Structures can show the parent of a compound that is named as a salt.

How the values were obtained:
[1] = Vapor-phase butanethiol removal, static headspace GC/MS; details: 1 μL sample in 10 mL vial, 30 minutes room temperature
Procedure: This example illustrates the malodor removal efficacy of exemplary activated alkenes-catalyst systems in the vapor phase. […] A 1 μL sample of each activated alkene-catalyst combination listed in Table 7 is pipeted into an individual 10 mL silanized headspace vial. The vials are sealed and allowed to equilibrate for at least 12 hours. This procedure is repeated 2 times for each sample. After the equilibration period, 1.5 mL of the target malodor standard vapor is injected into each 10 mL vial. For thiol analysis, the vials containing a sample+malodor standard are held at room temperature for 30 minutes. Then, a 1 mL headspace syringe is then used to inject 250 μL of each sample/malodor into a GC/MS split/splitless inlet. A GC pillow is used for the amine analysis to shorten the run times. Samples are then analyzed using a GC/MS with a DB-5, 20 m, 1 μm film thickness column with an MPS-2 autosampler equipment with static headspace function. Data is analyzed by ion extraction on each total ion current (56 for thiol) and the area is used to calculate the percent reduction from the malodor standard for each sample. Here, the results are reported as % reduction, and higher numbers represent higher reduction in butanethiol concentration.

[2] = Headspace SPME GC/MS malodor removal by aqueous Composition 3 (butylamine); details: 0.5 wt. % activated alkene in Composition 3, pH 7, no catalyst; 2 hours room temperature, 30 minutes 35° C.; numbers less than 1 = reduced malodor
Procedure: (§1) All activated alkenes are present in Composition 3 in an amount of 0.5 wt. %, except PEG 400 Dimethylacrylate which is present in Composition 3 in amount of 1.0 wt. %.
(§2) In addition, a Control composition is prepared according to the composition in Table 3, except the activated alkene is omitted. Composition 3 with each activated alkene and the Control composition are then tested for malodor removal performance as described below.
(§3) n-Butanethiol and di-n-propoyl sulfide were chosen as chemical surrogates for sulfur-containing odors such as onion, garlic, sewage, etc. n-Butylamine was used as a representative for amine-containing odors such as fish, pet urine, etc.
(§4) 5 ml of Composition 3 and the Control composition are placed into a separate GC-MS vial and each spiked with 5 microliters of butanthiol or butylamine. The compositions are first equilibrated at room temperature for 2 hours, then incubated at 35° C. for 30 minutes. The headspace of each vial is finally sampled using a polydimethyl siloxane (“PDMS”)/SPME fiber and analyzed by GC/MS. The head space concentrations of odor molecules are measured and the data are normalized to the Control composition.
(§5) Numbers less than 1 denote reduced levels of malodor molecules present in the headspace of Composition 3 relative to the Control composition. The reduced malodor level is attributed to high malodor control efficacy of Composition 3.

[3] = Headspace SPME GC/MS malodor removal by aqueous Composition 3 (butanethiol); details: 0.5 wt. % activated alkene in Composition 3, pH 7, no catalyst; 2 hours room temperature, 30 minutes 35° C.; numbers less than 1 = reduced malodor
Procedure: as §1, §2, §3, §4, §5

[4] = Headspace SPME GC/MS butanethiol removal by aqueous Composition 5 (activated alkene and catalyst); details: for Butanethiol head space concentration normalized to Control, catalyst DBU / Butanethiol head space concentration normalized to Control, catalyst n-hexyl amine / Butanethiol head space concentration normalized to Control, catalyst n-octylamine: Composition 5, 0.5 wt. % activated alkene + catalyst, pH 7; for Butanethiol head space concentration normalized to Control, catalyst DBU: DBU 1:150 molar ratio of catalyst:alkene; for Butanethiol head space concentration normalized to Control, catalyst n-hexyl amine: n-hexyl amine 1:15 molar ratio of catalyst:alkene; for Butanethiol head space concentration normalized to Control, catalyst n-octylamine: n-octylamine 1:15 molar ratio of catalyst:alkene; for Butanethiol head space concentration normalized to Control, No catalyst: Composition 5, 0.5 wt. % activated alkene, pH 7, no catalyst
Procedure: [Worded in the source for another target; this target is reported under the same test.] as §4

[5] = benchmark values; cited from earlier work

Molecule | % reduction in butanethiol concentration, 1% w/w DBU [1] [%] | % reduction in butanethiol concentration, 1% w/w n-hexylamine [1] [%] | % reduction in butanethiol concentration, 1% w/w n-octylamine [1] [%] | % reduction in butanethiol concentration, No catalyst [1] [%] | Butylamine head space concentration normalized to Control composition, Replicate 1 [2] | Butylamine head space concentration normalized to Control composition, Replicate 2 [2] | Butanethiol head space concentration normalized to Control composition, Replicate 1 [3] | Butanethiol head space concentration normalized to Control composition, Replicate 2 [3] | Butanethiol head space concentration normalized to Control, catalyst DBU [4] | Butanethiol head space concentration normalized to Control, catalyst n-hexyl amine [4] | Butanethiol head space concentration normalized to Control, catalyst n-octylamine [4] | Butanethiol head space concentration normalized to Control, No catalyst [4] | ambient temperature water solubility (benchmark) [5] [g/100 ml]
O=C1C=CC(=O)N1c1ccccc1 [n-phenylmaleimide] | 10 | 1.5 | 2.2 | 12.4 | – | – | – | – | – | – | – | – | –
N,N dimethylacrylamide-4- methoxy phenol | 95.2 | 50 | 22.3 | 28.2 | – | – | – | – | – | – | – | – | –
CC(C)=CCCC(C)=CC=O [Citral] | – | – | – | – | 0.0 | 0.0 | 0.1 | 0.1 | – | – | – | – | –
C=CC(=O)N(C)C [N,N Dimethyl Acrylamide] | – | – | – | – | 1.0 | 1.0 | 0.8 | 0.8 | 0.3 | 0.6 | 0.7 | 0.8 | –
C/C=C/C(=O)C1C(C)C=CCC1(C)C (stereo not drawn) [Delta Damascone] | 99.6 | 30.7 | 24.4 | 21 | – | – | – | – | – | – | – | – | –
CCOC(=O)/C=C\C(=O)OCC [Diethyl Maleate] | 44.3 | 13.3 | 8.1 | 24.5 | 0.5 | 0.0 | 0.7 | 0.6 | 0.5 | 0.1 | 0.04 | 0.7 | –
OC[C@H]1O[C@@H]2O[C@H]3[C@H](O)[C@@H](O)[C@@H](O[C@H]4[C@H](O)[C@@H](O)[C@@H](O[C@H]5[C@H](O)[C@@H](O)[C@@H](O[C@H]6[C@H](O)[C@@H](O)[C@@H](O[C@H]7[C@H](O)[C@@H](O)[C@@H](O[C@H]8[C@H](O)[C@@H](O)[C@@H](O[C@H]1[C@H](O)[C@H]2O)O[C@@H]8CO)O[C@@H]7CO)O[C@@H]6CO)O[C@@H]5CO)O[C@@H]4CO)O[C@@H]3CO [beta-cyclodextrin] | – | – | – | – | – | – | – | – | – | – | – | – | 1.8
O=C1C=CC(=O)N1C1CCCCC1 [N-Cyclohexylmaleimide] | – | – | – | – | 0.0 | 0.0 | 0.0 | 0.0 | – | – | – | – | –
hydroxypropyl modified beta cyclodextrin | – | – | – | – | – | – | – | – | – | – | – | – | ≥ 60
CCOC(=O)/C=C/C(=O)OCC [Diethyl Fumarate] | 63 | 3.8 | 11.2 | 20.7 | 0.1 | 0.1 | 0.4 | 0.3 | 0.2 | 0 | 0 | 0.3 | –
C=CC(=O)OCCCCCC [Hexyl Acrylate] | 23.1 | 11.2 | 21 | 31.9 | 0.6 | 0.5 | 0.1 | 0.1 | 0.2 | 0.02 | 0 | 0.1 | –
CCc1occc(=O)c1O [Ethyl Maltol] | – | – | – | – | 0.0 | 0.0 | 0.8 | 0.9 | – | – | – | – | –
C/C=C/C(=O)C1=C(C)C=CCC1(C)C [Damascenone] | – | – | – | – | 1.0 | 1.1 | 0.6 | 0.7 | 0.8 | 0.4 | 0.6 | 0.6 | –
